According to article PMC7340851 (Bioorganic & medicinal chemistry, 2020):
Where two headings read alike, the source gives them in different places.

Assays:
5-HT2AR = 5-HT2AR (Homo sapiens, UniProt P28223); assay: 5-HT2AR radioligand binding assay
5-HT6R = 5-HT6R (Homo sapiens, UniProt P50406); assay: 5-HT6R radioligand binding assay; conditions: [3H]LSD radioligand; triplicate; na = not active (<50% inhibition in a primary assay)
5-HT7AR = 5-HT7AR (Homo sapiens, UniProt P34969); assay: 5-HT7AR radioligand binding assay
5-HT7AR, sequence (P34969 1-445 isoform P34969-2): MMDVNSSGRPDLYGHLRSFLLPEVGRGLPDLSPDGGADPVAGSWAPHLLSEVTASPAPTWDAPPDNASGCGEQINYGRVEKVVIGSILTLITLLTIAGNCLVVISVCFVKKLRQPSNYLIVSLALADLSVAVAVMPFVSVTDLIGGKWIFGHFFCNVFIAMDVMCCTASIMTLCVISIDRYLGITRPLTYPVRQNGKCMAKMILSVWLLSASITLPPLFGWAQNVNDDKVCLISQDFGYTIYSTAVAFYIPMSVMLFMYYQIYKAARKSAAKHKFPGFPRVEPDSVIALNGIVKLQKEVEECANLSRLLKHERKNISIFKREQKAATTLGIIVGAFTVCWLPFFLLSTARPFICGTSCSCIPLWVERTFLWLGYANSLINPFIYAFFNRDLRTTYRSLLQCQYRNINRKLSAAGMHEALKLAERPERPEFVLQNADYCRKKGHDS

D5R = D5R (Homo sapiens, UniProt P21918); assay: D5R radioligand binding assay; conditions: triplicate; na = not active (<50% inhibition in a primary assay)
D5R, sequence (P21918 whole entry): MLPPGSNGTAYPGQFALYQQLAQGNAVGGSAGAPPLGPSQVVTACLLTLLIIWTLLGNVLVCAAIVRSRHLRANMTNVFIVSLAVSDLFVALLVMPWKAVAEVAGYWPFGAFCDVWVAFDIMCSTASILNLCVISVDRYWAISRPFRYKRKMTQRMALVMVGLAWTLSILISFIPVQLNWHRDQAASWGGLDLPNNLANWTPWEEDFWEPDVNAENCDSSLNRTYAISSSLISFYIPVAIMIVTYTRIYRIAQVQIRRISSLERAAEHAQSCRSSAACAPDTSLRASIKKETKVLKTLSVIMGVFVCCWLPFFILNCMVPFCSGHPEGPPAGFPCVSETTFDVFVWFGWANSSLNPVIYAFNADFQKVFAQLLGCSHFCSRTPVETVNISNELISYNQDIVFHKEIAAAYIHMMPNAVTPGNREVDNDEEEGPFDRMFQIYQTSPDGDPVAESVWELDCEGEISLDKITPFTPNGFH

[1] = [3H]Ketanserin radioligand, triplicate, na = not active (<50% inhibition in a primary assay)

5-HT2AR, sequence (P28223 whole entry): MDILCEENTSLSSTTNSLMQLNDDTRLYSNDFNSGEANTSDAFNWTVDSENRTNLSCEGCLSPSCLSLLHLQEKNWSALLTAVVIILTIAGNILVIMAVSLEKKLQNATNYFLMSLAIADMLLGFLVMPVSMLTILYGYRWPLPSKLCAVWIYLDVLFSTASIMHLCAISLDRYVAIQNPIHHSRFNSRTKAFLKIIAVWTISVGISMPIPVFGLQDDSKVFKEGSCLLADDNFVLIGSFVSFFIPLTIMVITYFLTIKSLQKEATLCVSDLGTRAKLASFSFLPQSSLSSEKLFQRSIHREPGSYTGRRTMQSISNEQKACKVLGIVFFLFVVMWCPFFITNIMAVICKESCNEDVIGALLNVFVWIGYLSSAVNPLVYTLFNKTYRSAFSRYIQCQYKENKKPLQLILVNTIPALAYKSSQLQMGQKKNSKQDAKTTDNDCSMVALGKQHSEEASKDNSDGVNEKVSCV
5-HT6R, sequence (P50406 whole entry): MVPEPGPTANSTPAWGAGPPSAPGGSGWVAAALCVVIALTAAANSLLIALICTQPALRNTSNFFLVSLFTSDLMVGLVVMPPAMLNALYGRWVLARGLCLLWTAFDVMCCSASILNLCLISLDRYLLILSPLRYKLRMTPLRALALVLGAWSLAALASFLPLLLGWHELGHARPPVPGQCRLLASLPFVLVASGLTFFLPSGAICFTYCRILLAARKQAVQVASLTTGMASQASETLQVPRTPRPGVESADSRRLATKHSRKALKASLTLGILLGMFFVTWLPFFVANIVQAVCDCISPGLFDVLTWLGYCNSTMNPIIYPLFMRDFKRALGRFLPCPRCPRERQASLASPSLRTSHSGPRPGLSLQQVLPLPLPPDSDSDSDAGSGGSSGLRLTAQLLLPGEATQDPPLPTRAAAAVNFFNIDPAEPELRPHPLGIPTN

SMILES	Ki 5-HT2AR (5-HT2AR; [1])	Ki D5R (D5R)	other results
CCCN1CCc2cccc3c2C1Cc1ccc(NC(C)=O)cc1-3 (centres unmarked) [Compound 25, N-(6-propyl-5,6,6a,7-tetrahydro-4H-dibenzo[de,g]quinolin-10-yl)acetamide]	no affinity		Ki 5-HT6R (5-HT6R): no affinity; Ki 5-HT7AR (5-HT7AR; [3H]LSD radioligand, triplicate, na = not active (<50% inhibition in a primary assay)): no affinity
CN(C)c1ccc2c(c1)-c1cccc3c1C(C2)N(C)CC3 (centres unmarked) [Compound 31, N,N,6-trimethyl-5,6,6a,7-tetrahydro-4H-dibenzo[de,g]quinolin-10-amine]			Ki 5-HT2AR (5-HT2AR): fairly weak affinity; Ki 5-HT6R (5-HT6R): fairly weak affinity
CN1CCc2cccc3c2C1Cc1ccc(NC(N)=O)cc1-3 (centres unmarked) [Compound 29, 1-(6-methyl-5,6,6a,7-tetrahydro-4H-dibenzo[de,g]quinolin-10-yl)urea]		lacked affinity	
CN1CCc2cccc3c2C1Cc1ccc2nc(N)sc2c1-3 (centres unmarked) [Compound 33a, 7-methyl-6a,7,8,9-tetrahydro-6H-benzo[de]thiazolo[4’,5’:5,6]benzo[1,2-g]quinolin-2-amine]		no affinity	selectivity for 5-HT7AR versus 5-HT1AR (5-HT7AR; ratio of binding affinities): approximately 19 fold
CCCN1CCc2cccc3c2C1Cc1cc2sc(N)nc2cc1-3 (centres unmarked) [Compound 34b, 6-propyl-5,6,6a,7-tetrahydro-4H-benzo[de]thiazolo[5’,4’:4,5]benzo[1,2-g]quinolin-10-amine]		lack of affinity	
COc1cc2c3c(c1OC)-c1cc(NS(C)(=O)=O)ccc1CC3N(C)CC2 (centres unmarked) [Compound 15, N-(1,2-dimethoxy-6-methyl-5,6,6a,7-tetrahydro-4H-dibenzo[de,g]quinolin-10-yl)methanesulfonamide]	lack of affinity		
COc1cc2c3c(c1OC)-c1cc(NC(N)=O)ccc1CC3N(C)CC2 (centres unmarked) [Compound 19, 1-(1,2-dimethoxy-6-methyl-5,6,6a,7-tetrahydro-4H-dibenzo[de,g]quinolin-10-yl)urea]	lack of affinity		
